According to the NIST ThermoML archive (doi:10.1016/j.jct.2017.08.004):

How the values were obtained:
[1] = for molar entropy: 101.33 kPa; for Normal melting temperature: DTA
[2] = Molar enthalpy of transition or fusion; conditions: Crystal; DSC

O[C@H]1[C@H](O)[C@@H](O)[C@H](O)[C@@H](O)[C@H]1O [cis-1,2,3,5-trans-4,6-cyclohexanehexol]
[1]
Conditions	molar entropy [J/K/mol]
1 K, Crystal, relaxation calorimetry	0.001133
2 K, Crystal, relaxation calorimetry	0.00457
3 K, Crystal, relaxation calorimetry	0.01283
4 K, Crystal, relaxation calorimetry	0.0288
5 K, Crystal, relaxation calorimetry	0.05587
6 K, Crystal, relaxation calorimetry	0.09786
7 K, Crystal, relaxation calorimetry	0.1588
8 K, Crystal, relaxation calorimetry	0.2429
9 K, Crystal, relaxation calorimetry	0.3528
10 K, Crystal, relaxation calorimetry	0.4907
15 K, Crystal, relaxation calorimetry	1.619
20 K, Crystal, relaxation calorimetry	3.401
25 K, Crystal, relaxation calorimetry	5.648
30 K, Crystal, relaxation calorimetry	8.19
35 K, Crystal, relaxation calorimetry	10.93
40 K, Crystal, relaxation calorimetry	13.82
45 K, Crystal, relaxation calorimetry	16.84
50 K, Crystal, relaxation calorimetry	19.96
55 K, Crystal, relaxation calorimetry	23.14
60 K, Crystal, relaxation calorimetry	26.38
65 K, Crystal, relaxation calorimetry	29.66
70 K, Crystal, relaxation calorimetry	33
75 K, Crystal, relaxation calorimetry	36.38
80 K, Crystal, relaxation calorimetry	39.8
85 K, Crystal, relaxation calorimetry	43.26
90 K, Crystal, relaxation calorimetry	46.76
95 K, Crystal, relaxation calorimetry	50.29
100 K, Crystal, relaxation calorimetry	53.84
110 K, Crystal, relaxation calorimetry	61.01
120 K, Crystal, relaxation calorimetry	68.23
130 K, Crystal, relaxation calorimetry	75.5
140 K, Crystal, relaxation calorimetry	82.8
150 K, Crystal, relaxation calorimetry	90.1
160 K, Crystal, relaxation calorimetry	97.42
170 K, Crystal, relaxation calorimetry	104.72
180 K, Crystal, relaxation calorimetry	112.03
190 K, Crystal, relaxation calorimetry	119.33
200 K, Crystal, relaxation calorimetry	126.62
210 K, Crystal, relaxation calorimetry	133.91
220 K, Crystal, relaxation calorimetry	141.19
230 K, Crystal, relaxation calorimetry	148.47
240 K, Crystal, relaxation calorimetry	155.74
250 K, Crystal, relaxation calorimetry	163.02
260 K, Crystal, relaxation calorimetry	170.3
270 K, Crystal, relaxation calorimetry	177.58
273.15 K, Crystal, relaxation calorimetry	179.88
280 K, Crystal, relaxation calorimetry	184.87
290 K, Crystal, relaxation calorimetry	192.17
298.15 K, Crystal, relaxation calorimetry	198.12
300 K, Crystal, relaxation calorimetry	199.48
305 K, Crystal, Small sample (50 mg) DSC	203.13
310 K, Crystal, Small sample (50 mg) DSC	206.81
315 K, Crystal, Small sample (50 mg) DSC	210.5
320 K, Crystal, Small sample (50 mg) DSC	214.2
325 K, Crystal, Small sample (50 mg) DSC	217.91
330 K, Crystal, Small sample (50 mg) DSC	221.64
335 K, Crystal, Small sample (50 mg) DSC	225.37
340 K, Crystal, Small sample (50 mg) DSC	229.11
345 K, Crystal, Small sample (50 mg) DSC	232.86
350 K, Crystal, Small sample (50 mg) DSC	236.62
355 K, Crystal, Small sample (50 mg) DSC	240.38
360 K, Crystal, Small sample (50 mg) DSC	244.15
365 K, Crystal, Small sample (50 mg) DSC	247.92
370 K, Crystal, Small sample (50 mg) DSC	251.69
375 K, Crystal, Small sample (50 mg) DSC	255.47
380 K, Crystal, Small sample (50 mg) DSC	259.25
385 K, Crystal, Small sample (50 mg) DSC	263.03
390 K, Crystal, Small sample (50 mg) DSC	266.82
395 K, Crystal, Small sample (50 mg) DSC	270.6
400 K, Crystal, Small sample (50 mg) DSC	274.38
405 K, Crystal, Small sample (50 mg) DSC	278.16
410 K, Crystal, Small sample (50 mg) DSC	281.94
415 K, Crystal, Small sample (50 mg) DSC	285.72
420 K, Crystal, Small sample (50 mg) DSC	289.5
425 K, Crystal, Small sample (50 mg) DSC	293.27
430 K, Crystal, Small sample (50 mg) DSC	297.05
435 K, Crystal, Small sample (50 mg) DSC	300.82
440 K, Crystal, Small sample (50 mg) DSC	304.59
445 K, Crystal, Small sample (50 mg) DSC	308.35
450 K, Crystal, Small sample (50 mg) DSC	312.12
455 K, Crystal, Small sample (50 mg) DSC	315.89
460 K, Crystal, Small sample (50 mg) DSC	319.66
465 K, Crystal, Small sample (50 mg) DSC	323.43
470 K, Crystal, Small sample (50 mg) DSC	327.21
475 K, Crystal, Small sample (50 mg) DSC	331
480 K, Crystal, Small sample (50 mg) DSC	334.8
485 K, Crystal, Small sample (50 mg) DSC	338.61
490 K, Crystal, Small sample (50 mg) DSC	342.46
495 K, Crystal, Small sample (50 mg) DSC	346.55
510 K, Liquid, Small sample (50 mg) DSC	453.9
515 K, Liquid, Small sample (50 mg) DSC	458.89
520 K, Liquid, Small sample (50 mg) DSC	463.79
525 K, Liquid, Small sample (50 mg) DSC	468.65
530 K, Liquid, Small sample (50 mg) DSC	473.46
535 K, Liquid, Small sample (50 mg) DSC	478.23
540 K, Liquid, Small sample (50 mg) DSC	482.95

Conditions	Normal melting temperature [°C]
[1], Crystal	224.58

Conditions	Molar enthalpy of transition or fusion [kJ/mol]
[2]	50.1

OC[C@H](O)C(O)[C@@H](O)CO [L-(-)-arabitol]
[1]
Conditions	molar entropy [J/K/mol]
1 K, Crystal, relaxation calorimetry	0.0005209
2 K, Crystal, relaxation calorimetry	0.002213
3 K, Crystal, relaxation calorimetry	0.006332
4 K, Crystal, relaxation calorimetry	0.0143
5 K, Crystal, relaxation calorimetry	0.0278
6 K, Crystal, relaxation calorimetry	0.04885
7 K, Crystal, relaxation calorimetry	0.07993
8 K, Crystal, relaxation calorimetry	0.1243
9 K, Crystal, relaxation calorimetry	0.1854
10 K, Crystal, relaxation calorimetry	0.2663
15 K, Crystal, relaxation calorimetry	1.038
20 K, Crystal, relaxation calorimetry	2.479
25 K, Crystal, relaxation calorimetry	4.532
30 K, Crystal, relaxation calorimetry	7.074
35 K, Crystal, relaxation calorimetry	9.99
40 K, Crystal, relaxation calorimetry	13.19
45 K, Crystal, relaxation calorimetry	16.61
50 K, Crystal, relaxation calorimetry	20.19
55 K, Crystal, relaxation calorimetry	23.88
60 K, Crystal, relaxation calorimetry	27.65
65 K, Crystal, relaxation calorimetry	31.48
70 K, Crystal, relaxation calorimetry	35.36
75 K, Crystal, relaxation calorimetry	39.27
80 K, Crystal, relaxation calorimetry	43.19
85 K, Crystal, relaxation calorimetry	47.12
90 K, Crystal, relaxation calorimetry	51.04
95 K, Crystal, relaxation calorimetry	54.97
100 K, Crystal, relaxation calorimetry	58.89
110 K, Crystal, relaxation calorimetry	66.69
120 K, Crystal, relaxation calorimetry	74.44
130 K, Crystal, relaxation calorimetry	82.11
140 K, Crystal, relaxation calorimetry	89.7
150 K, Crystal, relaxation calorimetry	97.21
160 K, Crystal, relaxation calorimetry	104.63
170 K, Crystal, relaxation calorimetry	111.97
180 K, Crystal, relaxation calorimetry	119.24
190 K, Crystal, relaxation calorimetry	126.44
200 K, Crystal, relaxation calorimetry	133.58
210 K, Crystal, relaxation calorimetry	140.66
220 K, Crystal, relaxation calorimetry	147.69
230 K, Crystal, relaxation calorimetry	154.69
240 K, Crystal, relaxation calorimetry	161.65
250 K, Crystal, relaxation calorimetry	168.59
260 K, Crystal, relaxation calorimetry	175.51
270 K, Crystal, relaxation calorimetry	182.43
273.15 K, Crystal, relaxation calorimetry	184.6
280 K, Crystal, relaxation calorimetry	189.34
290 K, Crystal, relaxation calorimetry	196.25
298.15 K, Crystal, relaxation calorimetry	201.89
300 K, Crystal, relaxation calorimetry	203.17
305 K, Crystal, Small sample (50 mg) DSC	206.64
310 K, Crystal, Small sample (50 mg) DSC	210.13
315 K, Crystal, Small sample (50 mg) DSC	213.64
320 K, Crystal, Small sample (50 mg) DSC	217.18
325 K, Crystal, Small sample (50 mg) DSC	220.73
330 K, Crystal, Small sample (50 mg) DSC	224.32
335 K, Crystal, Small sample (50 mg) DSC	227.93
340 K, Crystal, Small sample (50 mg) DSC	231.6
345 K, Crystal, Small sample (50 mg) DSC	235.34
350 K, Crystal, Small sample (50 mg) DSC	239.2
355 K, Crystal, Small sample (50 mg) DSC	243.24
360 K, Crystal, Small sample (50 mg) DSC	247.71
380 K, Liquid, Small sample (50 mg) DSC	355.56
385 K, Liquid, Small sample (50 mg) DSC	361.46
390 K, Liquid, Small sample (50 mg) DSC	367.15
395 K, Liquid, Small sample (50 mg) DSC	372.77
400 K, Liquid, Small sample (50 mg) DSC	378.34
405 K, Liquid, Small sample (50 mg) DSC	383.87
410 K, Liquid, Small sample (50 mg) DSC	389.35
415 K, Liquid, Small sample (50 mg) DSC	394.8

Conditions	Normal melting temperature [°C]
[1], Crystal	96.70

Conditions	Molar enthalpy of transition or fusion [kJ/mol]
[2]	36.8
